Data published in publication PMC7335050, “Characterization of an alternative BAK-binding site for BH3 peptides” (Nature Communications, 2020).
“And” between values parts separate entries of the source, which are not always exact repeats. Identical values can stand only once. “Also recorded” adds a separate entry of the source. Residues, ends and D or L forms follow the SMILES beside them.

Experiments:
BAKΔTM = molecular target: T1, BAKΔTM (Homo sapiens, UniProt Q16611); assay: SPR binding of BH3 peptides to immobilized BAKΔTM; conditions: for Kd: BAKΔTM immobilized on CM5 chip, steady-state analysis, three independent SPR assays, top concentrations not threefold above KD, read-out: Approximate dissociation constant ranges, KDs for BAK
T1 construct: BAKΔTM (GenBank BC004431, residues 1–186); His6; made in house; host or cells: E. coli BL21
T1 sequence (Q16611 1-186): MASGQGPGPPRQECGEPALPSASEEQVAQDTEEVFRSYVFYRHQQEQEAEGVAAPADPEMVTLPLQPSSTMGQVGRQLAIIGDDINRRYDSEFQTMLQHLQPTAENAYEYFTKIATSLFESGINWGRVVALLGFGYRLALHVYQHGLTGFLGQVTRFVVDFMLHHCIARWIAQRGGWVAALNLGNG

[1] = tested on: Bak in mitochondria from Bax−/− MEFs; assay: Cytochrome c release from mitochondria of Bax−/− MEFs; assay type: biochemical, mouse
Method: (§1) Mitochondria[43] purified from Bax^−/− MEFs were incubated with the indicated concentrations of navitoclax, S63845 or BH3 peptides at 25 °C for 90 min. After centrifugation (10,000 g, 15 min) and washing, supernatants and pellets were analyzed by immunoblotting. Alternatively, His6-BAKΔTM was dialyzed against mitochondria (mito) buffer (150 mM KCl, 5 mM MgCl2, 1 mM EGTA, 25 mM HEPES, pH 7.5) and diluted into mito buffer with 5 mM DTT. Mitochondria purified from Bak^−/−Bax^−/− MEFs were then incubated with 2 μM His6-BAKΔTM and the indicated BH3 peptides (5 μM) at 25 °C for 90 min. After centrifugation (10,000 × g, 15 min) and washing, supernatants and pellets were analyzed by immunoblotting.

human BAKΔTM = assay: Cytochrome c release from mitochondria of Bak−/−Bax−/− MEFs plus purified human BAKΔTM; assay type: biochemical; conditions: 2 μM His6-BAKΔTM, 5 μM BH3 peptide, 25 °C, 90 min, immunoblotting
Method: as §1

BAK (His6-BAKΔTM) = assay: Liposome permeabilization assay (FITC-dextran release) with BAK; assay type: biochemical, human; conditions: 50 nM BAK + 50 nM BH3 peptide
Method: (§2) 1-Palmitoyl-2-oleoyl-sn-glycero-3-phosphocholine, 1-plamitoyl-2-oleoyl-sn-glycero-3-phosphoethanolamine, L-α-phosphatidyl-inositol, cardiolipin, cholesterol and 18:1 DGS-NTA(Ni) were mixed at a weight ratio of 36:22:9:8:20:5, and dried as thin films in glass test tubes under nitrogen for 16 h. To encapsulate FITC-labeled dextran 10 (F-d10), 50 mg F-d10 was added to 50 mg lipid in 1 ml of 150 KCl buffer containing 20 mM HEPES (pH 7.0), sonicated and extruded 15 times through a 400 nm polycarbonate membrane. Liposomes with F-d10 were further purified by gel filtration on Sephacryl S-300 HR (GE Healthcare). Phosphate was determined by colorimetric assay (Abcam, Cambridge, UK).
(§3) Release of F-d10 from large unilamellar vesicles (LUVs) was monitored by fluorescence dequenching[25] using a fluorimetric plate reader (Thermo Scientific) with SoftMax Pro software. After addition of purified His6-BAKΔTM and/or the BH3 peptides to LUVs (final lipid concentration 10 µg ml^−1), 96 well plates were incubated at 37 °C and recorded (excitation 485 nm, emission 538 nm) every 10 sec. FITC-labeled dextran release was calculated using the equation ((Fsample − Fblank)/(FTriton − Fblank) × 100%), where Fsample, Fblank, and FTriton are the fluorescence recorded for the reagent-, buffer-, and 1% Triton-treated LUVs, respectively.

BAK F93E = conditions: SPR, about 4000 RU immobilized, series of peptide concentrations, three independent experiments
Excerpt: (§4) Plasmids encoding BAKΔTM (GenBank BC004431, residues 1–186) in pET29b(+) was kindly provided by Qian Liu and Kalle Gehring (McGill University, Montreal, Canada)[34]. Plasmids encoding BAK 15–186 and the corresponding BAK mutants were generated using site-directed mutagenesis. All plasmids were subjected to automated sequencing to verify the described alterations and confirm that no additional mutations were present.
(§5) Proteins for SPR were further purified by FPLC on Superdex S200, concentrated in a centrifugal concentrator (Centricon, Millipore), dialyzed against Biacore buffer (10 mM 4-(2-hydroxyethyl)-1-piperazineethanesulfonic acid (HEPES; pH 7.4), 150 mM NaCl, 0.05 mM ethylenediaminetetraacetic acid (EDTA) and 0.005% (w/v) polysorbate 20) and stored at 4 °C for <48 h before use.
(§6) BAKΔTM or mutants were immobilized on a CM5 chip using a Biacore T200 biosensor with a blank channel as a negative control. Binding assays were performed at 25 °C using Biacore buffer containing the indicated BH3 peptides injected at 30 µl per min for 1 min using a Biacore T200 Control Software. Proteins were allowed to dissociate during perfusion with Biacore buffer at 30 µl per min for 10 min and then desorbed with 2 M MgCl2. All binding affinities were derived by Biacore T200 Evaluation Software using Steady State analysis (Biacore, Uppsala, Sweden).

BAK H164A/H165A = conditions: SPR, ~4000 RU immobilized, series of peptide concentrations, three independent experiments
Excerpt: as §4, §5, §6

BAK F161A = conditions: SPR, ~4000 RU immobilized, series of peptide concentrations, three independent experiments
Excerpt: as §4, §5, §6

BAK G126S = conditions: SPR, about 4000 RU immobilized, series of peptide concentrations, three independent experiments
Excerpt: as §4, §5, §6

BAKΔTM F161A = assay: Liposome permeabilization assay with BAKΔTM F161A; assay type: biochemical, human; conditions: 50 nM BAKΔTM F161A vs WT, 50 nM BH3 peptide, three independent experiments
Method: as §2, §3

[2] = 90 min at 25 °C, immunoblotting of supernatants and pellets

`CC[C@H](C)[C@H](NC(=O)[C@H](CS)NC(=O)[C@H](C)NC(=O)[C@H](CC(C)C)NC(=O)[C@H](CCCNC(=N)N)NC(=O)[C@H](CC(C)C)NC(=O)[C@H](C)NC(=O)[C@H](CC(C)C)NC(=O)[C@H](C)NC(=O)[C@H](CC(=O)O)NC(=O)[C@H](CO)NC(=O)CNC(=O)[C@@H](N)CCC(=O)O)C(=O)NCC(=O)N[C@@H](CC(=O)O)C(=O)N[C@@H](CCC(=O)O)C(=O)N[C@@H](CCSC)C(=O)N[C@@H](CC(=O)O)C(=O)N[C@H](C(=O)N[C@@H](CO)C(=O)N[C@@H](CC(C)C)C(=O)N[C@@H](CCCNC(=N)N)C(=O)N[C@@H](C)C(=O)N1CCC[C@H]1C(=O)N[C@@H](CCCNC(=N)N)C(=O)O)C(C)C` [BIK BH3] (H-EGSDALALRLACIGDEMDVSLRAPR-OH; N-terminus and C-terminus assumed) was tested, and the Kd (BAKΔTM; SPR, 25 °C) was > 10000 nM, the “Binding to BAKΔTM by SPR, in words” value (BAKΔTM; SPR, immobilized BAKΔTM, 25 °C) was “did not detect interactions; also recorded: undetectable” and the “Concentration that induced cytochrome c release” value ([1]; 90 min at 25 °C, immunoblotting of supernatants and pellets, 10 μM highest concentration tested) was 10 µM. For the same compound, the “Fold less active than the HRK BH3 peptide in cytochrome c release” value ([1]; MCL1 inhibitor S63845 added together with peptide, response to reviewers) was “about 10 fold”, the “Cytochrome c release, in words” value (human BAKΔTM) was “barely induced cytochrome c release” and the “Increase of BAK-mediated liposome release, in words” value (BAK (His6-BAKΔTM)) was “did not appreciably increase”.

For `CC[C@H](C)[C@H](NC(=O)[C@H](CS)NC(=O)[C@H](CCC(N)=O)NC(=O)[C@H](CC(C)C)NC(=O)[C@H](CCCCN)NC(=O)[C@H](CCCNC(=N)N)NC(=O)[C@H](C)NC(=O)[C@@H](NC(=O)[C@H](CCC(N)=O)NC(=O)[C@@H](NC(=O)[C@H](CCC(=O)O)NC(=O)[C@H](C)NC(=O)[C@@H](N)CCC(N)=O)C(C)C)[C@@H](C)CC)C(=O)N[C@@H](C)C(=O)N[C@@H](CC(=O)O)C(=O)N[C@@H](CCC(N)=O)C(=O)N[C@@H](Cc1ccccc1)C(=O)N[C@@H](Cc1c[nH]cn1)C(=O)N[C@@H](CCCNC(=N)N)C(=O)N[C@@H](CC(C)C)C(=O)N[C@@H](Cc1c[nH]cn1)C(=O)N[C@H](C(=O)N[C@@H](CCC(N)=O)C(=O)N[C@@H](CCC(N)=O)C(=O)N[C@@H](Cc1c[nH]cn1)C(=O)N[C@@H](CCC(N)=O)C(=O)O)C(C)C` [BMF BH3] (H-QAEVQIARKLQCIADQFHRLHVQQHQ-OH; N-terminus and C-terminus assumed), the “Effect of BAK F93E mutation on peptide binding (maximum RU) vs WT BAKΔTM” value (BAK F93E) was “did not appreciably affect binding”, the “Effect of BAK H164A/H165A mutation on peptide binding (maximum RU) vs WT BAKΔTM” value (BAK H164A/H165A) was “diminished binding” and the “Effect of BAK F161A mutation on peptide binding (maximum RU) vs WT BAKΔTM” value (BAK F161A) was “diminished binding”. For the same compound, the “Effect of BAK G126S mutation on peptide binding (maximum RU) vs WT BAKΔTM” value (BAK G126S) was “did not appreciably affect binding”, the Kd (BAKΔTM; SPR, 25 °C) was 400 to 600 nM and < 1000 nM and the “Association and dissociation, direct comparison of SPR curves” value (BAKΔTM; peptides at 1600 nM, immobilized BAKΔTM) was “fastest association with BAKΔTM and slowest dissociation”. For the same compound, the “Effect of F161A mutation on BAK-mediated liposome permeabilization initiated by the peptide” value (BAKΔTM F161A) was “markedly decreased”, the “Cytochrome c release, in words” value (human BAKΔTM) was “intermediate amount” and the “BAK-dependent release of liposome contents (FITC-dextran release)” value (BAK (His6-BAKΔTM); 37 °C, fluorescence dequenching, BAK alone 28%, mean of three independent experiments) was 46%.

`CC[C@H](C)[C@H](NC(=O)[C@H](CCC(=O)O)NC(=O)[C@H](CCCNC(=N)N)NC(=O)[C@H](C)NC(=O)[C@H](Cc1c[nH]c2ccccc12)NC(=O)[C@@H](N)CCC(N)=O)C(=O)NCC(=O)N[C@@H](C)C(=O)N[C@@H](CCC(N)=O)C(=O)N[C@@H](CC(C)C)C(=O)N[C@@H](CCCNC(=N)N)C(=O)N[C@@H](CCCNC(=N)N)C(=O)N[C@@H](CCSC)C(=O)N[C@@H](C)C(=O)N[C@@H](CC(=O)O)C(=O)N[C@@H](CC(=O)O)C(=O)N[C@@H](CC(C)C)C(=O)N[C@@H](CC(N)=O)C(=O)N[C@@H](C)C(=O)N[C@@H](CCC(N)=O)C(=O)N[C@@H](Cc1ccc(O)cc1)C(=O)N[C@@H](CCC(=O)O)C(=O)N[C@@H](CCCNC(=N)N)C(=O)N[C@@H](CCCNC(=N)N)C(=O)N[C@@H](CCCNC(=N)N)C(=O)N[C@@H](CCC(N)=O)C(=O)O` [PUMA BH3, reference compound] was tested, and the Kd (BAKΔTM; SPR, 25 °C) was 2000 to 2800 nM and the “Effect of F161A mutation on BAK-mediated liposome permeabilization initiated by the peptide” value (BAKΔTM F161A) was “did not affect”.

`Cc1c(-c2c(-c3ccc(F)o3)sc3ncnc(O[C@H](Cc4ccccc4OCc4ccnn4CC(F)(F)F)C(=O)O)c23)ccc(OCCN2CCN(C)CC2)c1Cl` [S63845] was tested, and the “Cytochrome c release, in words” value [1, 2] was “failed to induce cytochrome c release”.

With `CC1(C)CCC(c2ccc(Cl)cc2)=C(CN2CCN(c3ccc(C(=O)NS(=O)(=O)c4ccc(N[C@H](CCN5CCOCC5)CSc5ccccc5)c(S(=O)(=O)C(F)(F)F)c4)cc3)CC2)C1` [navitoclax] the “Cytochrome c release, in words” value [1, 2] was “failed to induce cytochrome c release” and the “Effect on BIK or HRK BH3-induced cytochrome c release” value ([1]; navitoclax applied along with BIK BH3 or HRK BH3) was “did not enhance”.
